Patent US8809498B2, “Pepstatin A derivatives” (priority 2008, dated 2014)
Starred links: 1 amine or outer side, 2 acyl side, 3 side chain; linkers in the order of their positions; H or OH if unused. Non-standard residues stand in square brackets, D forms with d. Residues, ends and D or L forms follow the SMILES beside them. *: point of attachment. Abu(4,4,4-F3) = N[C@@H](CC(F)(F)F)C(=O)O; Phe(4-F) = N[C@@H](Cc1ccc(F)cc1)C(=O)O; Phe(4-Me) = Cc1ccc(C[C@H](N)C(=O)O)cc1; X1 = CC(F)(F)C[C@H](N[*:1])C(=O)[*:2]; Sta = CC(C)C[C@H](N)[C@@H](O)CC(=O)O; Isovaleryl = CC(C)CC(=O)*; Nle = CCCC[C@H](N)C(=O)O; Orn = NCCC[C@H](N)C(=O)O; Dab = NCC[C@H](N)C(=O)O; Abu = CC[C@H](N)C(=O)O

Assays:
Assay type in all cases: biochemical
Sap1 of Candida albicans = Sap1 of Candida albicans (Candida albicans, UniProt P0CY27); experiment: Inhibition of proteolytic activity of Sap1 (resorufin-marked casein, fluorescence); details: for effectiveness against Sap1 compared with pepstatin A: versus pepstatin A
Sequence of Sap1 of Candida albicans (P0CY27 51-391): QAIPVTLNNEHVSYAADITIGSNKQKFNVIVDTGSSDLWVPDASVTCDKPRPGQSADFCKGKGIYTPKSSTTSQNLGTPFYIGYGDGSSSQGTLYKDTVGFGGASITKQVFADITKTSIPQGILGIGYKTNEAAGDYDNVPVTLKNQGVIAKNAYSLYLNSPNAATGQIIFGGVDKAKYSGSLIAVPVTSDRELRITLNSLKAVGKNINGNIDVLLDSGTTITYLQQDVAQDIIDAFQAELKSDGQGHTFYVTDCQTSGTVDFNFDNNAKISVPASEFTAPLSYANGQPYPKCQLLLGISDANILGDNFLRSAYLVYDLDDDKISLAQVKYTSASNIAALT
Protocol: (§1) For this purpose, that inhibitor concentration was determined in vitro at which the proteolytic activity of the enzyme or its velocity of metabolizing a substrate, respectively, was reduced for 50%.
(§2) The proteolytic activity of the tested Saps was determined at the pH optimum of those Saps. Resorufin-marked casein was used as substrate. Proteolysis of casein can be detected by an increase in fluorescence due to released resorufin (a fluorescence marker) by proteolysis.
(§3) Sap1, Sap3 and Sap6 of Candida albicans were independently dissolved in 2-(N-morpholino)ethanesulfonic acid (MES) having a concentration of 10 mmol/l and a pH of 6.5 resulting in enzyme solutions having a Sap concentration of 100 mmol/l. After one hour incubation at room temperature, 80 μl of a substrate solution comprising resorufin-marked casein in a sodium citrate buffer having a concentration of 500 mmol/l and a pH of 3.5 (in case of Sap3), 4.5 (in case of Sap1) and 5.0 (in case of Sap6) were added to 20 μl of enzyme solution. The resulting Sap concentration was 5 nmol/l. The resulting casein concentration was chosen such that the Saps could work in excess of substrate. Different Sap inhibitors were added, resulting in a final inhibitor concentration of 1 nmol/1, 2 nmol/1, 5 nmol/1, 10 nmol/l, nmol/l or 50 nmol/l in each case. One enzyme-substrate sample was left without addition of inhibitor. All experiments were performed in triplicate.
(§4) The mixture of enzyme and substrate or of enzyme, substrate and inhibitor was incubated at 37° C. under agitation at 300 rpm (rounds per minute) for 60 min in each case. Afterwards, 20 μl of a trichloroacetic acid solution (30%, w/v) were added. The mixture was placed on ice for 5 minutes and centrifuged afterwards for 3 min at 6000 rpm. The supernatant was removed.
(§5) To carry out fluorescence measurements, 100 μl of the supernatant were mixed with 100 μl Tris-HCl (trishydroxymethylaminomethane-HCl) having a concentration of 1 mol/l and a pH of 10.0. The fluorescence of this mixture was measured directly after adding Tris-HCl using an excitation wavelength of 530 nm and an emission wavelength of 590 nm on a CytoFluor 2350 apparatus (Millipore, Bedford, Mass., USA), wherein sensitivity was set to 2 and bandwidth was set to 7.
(§6) The average of three independent fluorescence measurements was calculated. The fluorescence of enzyme without inhibitor (i.e. inhibitor concentration of 0 nmol/l) was set to 100% enzyme activity. The activity of inhibited enzyme was calculated accordingly from the fluorescence of inhibited enzyme with respect to fluorescence of enzyme without inhibitor. Finally, the enzyme activity was plotted against the inhibitor concentration and the IC50 value was determined.

Sap5 = Sap5 (Candida albicans, UniProt P43094); experiment: Inhibition of proteolytic activity of Sap5
Sequence of Sap5 (P43094 77-418): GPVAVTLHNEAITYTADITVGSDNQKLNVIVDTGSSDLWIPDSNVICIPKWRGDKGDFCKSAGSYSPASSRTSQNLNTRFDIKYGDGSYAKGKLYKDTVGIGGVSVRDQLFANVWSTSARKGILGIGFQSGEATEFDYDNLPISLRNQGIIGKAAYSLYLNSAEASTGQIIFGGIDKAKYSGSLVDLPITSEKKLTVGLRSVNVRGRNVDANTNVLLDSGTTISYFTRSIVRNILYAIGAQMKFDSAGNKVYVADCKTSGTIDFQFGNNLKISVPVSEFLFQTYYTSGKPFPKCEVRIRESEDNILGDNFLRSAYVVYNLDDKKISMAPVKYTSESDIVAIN
Protocol: as §1, §2, §4, §5, §6

Sap3 of Candida albicans = Sap3 of Candida albicans (Candida albicans, UniProt P0CY29); experiment: Inhibition of proteolytic activity of Sap3 (resorufin-marked casein, fluorescence)
Sequence of Sap3 of Candida albicans (P0CY29 59-398): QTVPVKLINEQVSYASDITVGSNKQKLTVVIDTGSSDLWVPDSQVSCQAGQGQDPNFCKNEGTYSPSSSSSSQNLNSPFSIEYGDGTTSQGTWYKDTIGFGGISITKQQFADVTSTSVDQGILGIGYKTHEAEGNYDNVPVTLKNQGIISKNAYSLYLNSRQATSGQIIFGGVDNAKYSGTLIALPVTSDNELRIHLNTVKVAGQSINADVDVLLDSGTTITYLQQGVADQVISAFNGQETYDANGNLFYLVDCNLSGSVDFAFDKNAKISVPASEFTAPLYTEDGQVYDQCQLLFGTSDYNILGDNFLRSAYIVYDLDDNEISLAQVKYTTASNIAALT
Protocol: as §1, §2, §3, §4, §5, §6

Sap6 of Candida albicans = Sap6 of Candida albicans (Candida albicans, UniProt Q5AC08); experiment: Inhibition of proteolytic activity of Sap6 (resorufin-marked casein, fluorescence); details: for effect on Sap 6: versus pepstatin A
Sequence of Sap6 of Candida albicans (Q5AC08 77-418): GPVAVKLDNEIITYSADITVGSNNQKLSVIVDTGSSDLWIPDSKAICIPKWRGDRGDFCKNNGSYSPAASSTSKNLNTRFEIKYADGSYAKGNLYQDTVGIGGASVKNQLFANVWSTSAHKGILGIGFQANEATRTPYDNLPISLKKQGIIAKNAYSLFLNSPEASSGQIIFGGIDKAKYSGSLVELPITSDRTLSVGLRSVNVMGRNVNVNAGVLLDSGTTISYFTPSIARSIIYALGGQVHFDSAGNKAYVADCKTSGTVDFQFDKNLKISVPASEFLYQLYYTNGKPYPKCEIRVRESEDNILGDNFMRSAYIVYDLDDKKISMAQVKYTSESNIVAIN
Protocol: as §1, §2, §3, §4, §5, §6

Compound	IC50 (Sap1 of Candida albicans) [µM]	effectiveness against Sap1 compared with pepstatin A (Sap1 of Candida albicans)	IC50 (Sap5) [µM]	effect on Sap 5 (Sap5; versus pepstatin A)	IC50 (Sap3 of Candida albicans) [µM]	IC50 (Sap6 of Candida albicans) [µM]	effect on Sap 6 (Sap6 of Candida albicans)	specificity for Sap3 (Sap3 of Candida albicans; versus Sap1 and Sap6)	concentration equally effective in inhibiting Sap1, fold less than that of amprenavir (Sap1 of Candida albicans; versus amprenavir) [fold]
CCCC[C@H](NC(=O)[C@H](Cc1ccccc1)NC(=O)CC(C)C)C(=O)N[C@@H](CC(C)C)[C@@H](O)CC(=O)N[C@@H](CCCCN)C(=O)N[C@@H](CC(C)C)[C@@H](O)CC(=O)O [Compound K, (N-Iva-Phe)-Nle-Sta-Lys-Sta] (Isovaleryl-F[Nle][Sta]K[Sta]-OH)	< 0.005	more effective against Sap1 than pepstatin A itself	~0.005	increased effect on Sap 5	0.02	~0.05	–	–	–
Cc1c(O)cccc1C(=O)N[C@@H](CSc1ccccc1)[C@H](O)CN1C[C@H]2CCCC[C@H]2C[C@H]1C(=O)NC(C)(C)C [Nelfinavir, reference compound]	~250	–	–	–	> 312	–	–	–	–
CC(C)CC(=O)N[C@H](C(=O)N[C@H](C(=O)N[C@@H](CC(C)C)[C@@H](O)CC(=O)N[C@@H](CCCNC(=N)N)C(=O)N[C@@H](CC(C)C)[C@@H](O)CC(=O)O)C(C)C)C(C)C [P1'(Arg)-pepstatin, (N-Iva-Val)-Val-Sta-Arg-Sta] (Isovaleryl-VV[Sta]R[Sta]-OH)	~0.01	–	–	–	< 0.005	< 0.005	increased effects on Sap 6	–	–
CC(C)CC(=O)N[C@H](C(=O)N[C@H](C(=O)N[C@@H](CC(C)C)[C@@H](O)CC(=O)N[C@@H](CCN)C(=O)N[C@@H](CC(C)C)[C@@H](O)CC(=O)O)C(C)C)C(C)C [P1'(Dab)-pepstatin, (N-Iva-Val)-Val-Sta-Dab-Sta] (Isovaleryl-VV[Sta][Dab][Sta]-OH)	~0.4	–	–	–	~0.02	> 0.5	–	very high specificity for Sap3	–
CC(C)CC(=O)N[C@H](C(=O)N[C@H](C(=O)N[C@@H](CC(C)C)[C@@H](O)CC(=O)N[C@@H](CCCCN)C(=O)N[C@@H](CC(C)C)[C@@H](O)CC(=O)O)C(C)C)C(C)C [P1'(Lys)-pepstatin, (N-Iva-Val)-Val-Sta-Lys-Sta] (Isovaleryl-VV[Sta]K[Sta]-OH)	< 0.005	more effective against Sap1 than pepstatin A itself	–	–	< 0.005	~0.007	–	–	1000
CC(C)CC(=O)N[C@H](C(=O)N[C@H](C(=O)N[C@@H](CC(C)C)[C@@H](O)CC(=O)N[C@@H](CCCN)C(=O)N[C@@H](CC(C)C)[C@@H](O)CC(=O)O)C(C)C)C(C)C [P1'(Orn)-pepstatin, (N-Iva-Val)-Val-Sta-Orn-Sta] (Isovaleryl-VV[Sta][Orn][Sta]-OH)	~0.02	–	–	–	~0.015	~0.03	–	–	–
CC[C@H](NC(=O)[C@@H](NC(=O)CC(C)C)C(C)C)C(=O)N[C@@H](CC(C)C)[C@@H](O)CC(=O)N[C@@H](C)C(=O)N[C@@H](CC(C)C)[C@@H](O)CC(=O)O [P2(Abu)-pepstatin, (N-Iva-Val)-Abu-Sta-Ala-Sta, reference compound] (Isovaleryl-V[Abu][Sta]A[Sta]-OH)	~0.05	–	–	–	< 0.005	~0.02	–	–	–
CC(C)CC(=O)N[C@H](C(=O)N[C@@H](CC(C)(F)F)C(=O)N[C@@H](CC(C)C)[C@@H](O)CC(=O)N[C@@H](C)C(=O)N[C@@H](CC(C)C)[C@@H](O)CC(=O)O)C(C)C [P2(DfpGly)-pepstatin, (N-Iva-Val)-DfpGly-Sta-Ala-Sta] (Isovaleryl-V[X1][Sta]A[Sta]-OH)	~0.02	–	–	–	~0.005	~0.015	–	–	–
CC(C)CC(=O)N[C@H](C(=O)N[C@@H](CC(C)C)C(=O)N[C@@H](CC(C)C)[C@@H](O)CC(=O)N[C@@H](C)C(=O)N[C@@H](CC(C)C)[C@@H](O)CC(=O)O)C(C)C [P2(Leu)-pepstatin, (N-Iva-Val)-Leu-Sta-Ala-Sta, reference compound] (Isovaleryl-VL[Sta]A[Sta]-OH)	> 0.5	–	–	–	0.1	~0.2	–	–	–
CC(C)CC(=O)N[C@H](C(=O)N[C@@H](CCCCN)C(=O)N[C@@H](CC(C)C)[C@@H](O)CC(=O)N[C@@H](C)C(=O)N[C@@H](CC(C)C)[C@@H](O)CC(=O)O)C(C)C [P2(Lys)-pepstatin, (N-Iva-Val)-Lys-Sta-Ala-Sta] (Isovaleryl-VK[Sta]A[Sta]-OH)	> 0.5	–	~0.02	–	~0.1	0.05	–	–	–
CCCC[C@H](NC(=O)[C@@H](NC(=O)CC(C)C)C(C)C)C(=O)N[C@@H](CC(C)C)[C@@H](O)CC(=O)N[C@@H](C)C(=O)N[C@@H](CC(C)C)[C@@H](O)CC(=O)O [P2(Nle)-pepstatin, (N-Iva-Val)-N/e-Sta-Ala-Sta] (Isovaleryl-V[Nle][Sta]A[Sta]-OH)	~0.01	–	0.01	–	< 0.005	~0.015	–	–	–
CC(C)CC(=O)N[C@H](C(=O)N[C@@H](CC(F)(F)F)C(=O)N[C@@H](CC(C)C)[C@@H](O)CC(=O)N[C@@H](C)C(=O)N[C@@H](CC(C)C)[C@@H](O)CC(=O)O)C(C)C [P2(TfeGly)-pepstatin, (N-Iva-Val)-TfeGly-Sta-Ala-Sta] (Isovaleryl-V[Abu(4,4,4-F3)][Sta]A[Sta]-OH)	~0.05	–	–	–	< 0.005	~0.02	–	–	–
CC(C)CC(=O)N[C@@H](CC(C)C)C(=O)N[C@H](C(=O)N[C@@H](CC(C)C)[C@@H](O)CC(=O)N[C@@H](C)C(=O)N[C@@H](CC(C)C)[C@@H](O)CC(=O)O)C(C)C [P3(Leu)-pepstatin, (N-Iva-Leu)-Val-Sta-Ala-Sta, reference compound] (Isovaleryl-LV[Sta]A[Sta]-OH)	> 0.5	–	–	–	< 0.005	> 0.5	–	–	–
Cc1ccc(C[C@H](NC(=O)CC(C)C)C(=O)N[C@H](C(=O)N[C@@H](CC(C)C)[C@@H](O)CC(=O)N[C@@H](C)C(=O)N[C@@H](CC(C)C)[C@@H](O)CC(=O)O)C(C)C)cc1 [P3(MePhe)-pepstatin, (N-Iva-pMePhe)-Val-Sta-Ala-Sta] (Isovaleryl-[Phe(4-Me)]V[Sta]A[Sta]-OH)	~0.01	–	–	–	~0.005	~0.02	–	–	–
COc1ccc(C[C@H](NC(=O)CC(C)C)C(=O)N[C@H](C(=O)N[C@@H](CC(C)C)[C@@H](O)CC(=O)N[C@@H](C)C(=O)N[C@@H](CC(C)C)[C@@H](O)CC(=O)O)C(C)C)cc1 [P3(O—MeTyr)-pepstatin, (N-Iva-OMeTyr)-Val-Sta-Ala-Sta] (Isovaleryl-Y(Me)V[Sta]A[Sta]-OH)	> 0.5	–	–	–	~0.005	~0.01	–	–	–
CC(C)CC(=O)N[C@@H](Cc1ccccc1)C(=O)N[C@H](C(=O)N[C@@H](CC(C)C)[C@@H](O)CC(=O)N[C@@H](C)C(=O)N[C@@H](CC(C)C)[C@@H](O)CC(=O)O)C(C)C [P3(Phe)-pepstatin, (N-Iva-Phe)-Val-Sta-Ala-Sta] (Isovaleryl-FV[Sta]A[Sta]-OH)	~0.005	more effective against Sap1 than pepstatin A itself	–	–	< 0.005	~0.01	–	–	–
CC(C)CC(=O)N[C@@H](Cc1ccc(O)cc1)C(=O)N[C@H](C(=O)N[C@@H](CC(C)C)[C@@H](O)CC(=O)N[C@@H](C)C(=O)N[C@@H](CC(C)C)[C@@H](O)CC(=O)O)C(C)C [P3(Tyr)-pepstatin, (N-Iva-Tyr)-Val-Sta-Ala-Sta] (Isovaleryl-YV[Sta]A[Sta]-OH)	< 0.005	more effective against Sap1 than pepstatin A itself	–	–	< 0.005	< 0.005	increased effects on Sap 6	–	–
CC(C)CC(=O)N[C@@H](Cc1ccc(F)cc1)C(=O)N[C@H](C(=O)N[C@@H](CC(C)C)[C@@H](O)CC(=O)N[C@@H](C)C(=O)N[C@@H](CC(C)C)[C@@H](O)CC(=O)O)C(C)C [P3(p-FPhe)-pepstatin, (N-Iva-pFPhe)-Val-Sta-Ala-Sta] (Isovaleryl-[Phe(4-F)]V[Sta]A[Sta]-OH)	< 0.005	more effective against Sap1 than pepstatin A itself	–	–	< 0.005	~0.01	–	–	–
CC(C)(C)NC(=O)[C@@H]1C[C@@H]2CCCC[C@@H]2CN1C[C@@H](O)[C@H](Cc1ccccc1)NC(=O)[C@H](CC(N)=O)NC(=O)c1ccc2ccccc2n1 [Saquinavir, reference compound]	~50	–	–	–	~200	> 312	–	–	–
